Active and inactive are the calls of the source. The calls are words filed in the database; no cut-off is given here.
Columns and labels:
[1] = target: T1, Oxysterols receptor LXR-alpha (Homo sapiens) (UniProt Q13133); experiment: Partial agonist activity at recombinant human GAL4-DBD-fused LXRalpha-LBD expressed in HEK293T cells at 10 uM measured after 12 to 14 hrs by dual-glo luciferase reporter gene assay relative to T0901317; format: cell-based; conditions: HEK-293T
T1 sequence (whole entry): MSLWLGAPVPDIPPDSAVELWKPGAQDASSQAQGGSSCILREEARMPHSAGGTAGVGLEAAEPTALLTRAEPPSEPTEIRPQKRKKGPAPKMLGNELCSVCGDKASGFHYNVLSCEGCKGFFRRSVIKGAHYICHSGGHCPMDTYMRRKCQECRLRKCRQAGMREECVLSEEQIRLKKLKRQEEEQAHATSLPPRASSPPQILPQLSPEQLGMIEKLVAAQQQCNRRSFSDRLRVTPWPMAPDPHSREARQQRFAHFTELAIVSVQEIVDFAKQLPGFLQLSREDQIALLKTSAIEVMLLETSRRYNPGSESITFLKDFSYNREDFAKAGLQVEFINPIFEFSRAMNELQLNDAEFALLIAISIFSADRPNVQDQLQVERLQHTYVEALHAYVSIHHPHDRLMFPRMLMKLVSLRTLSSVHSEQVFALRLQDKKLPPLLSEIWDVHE

[2] = target: T2, Oxysterols receptor LXR-beta (Homo sapiens) (UniProt P55055); experiment: Partial agonist activity at recombinant human GAL4-DBD-fused LXRbeta-LBD expressed in HEK293T cells at 10 uM measured after 12 to 14 hrs by dual-glo luciferase reporter gene assay relative to T0901317; format: cell-based; conditions: HEK-293T
T2 sequence (whole entry): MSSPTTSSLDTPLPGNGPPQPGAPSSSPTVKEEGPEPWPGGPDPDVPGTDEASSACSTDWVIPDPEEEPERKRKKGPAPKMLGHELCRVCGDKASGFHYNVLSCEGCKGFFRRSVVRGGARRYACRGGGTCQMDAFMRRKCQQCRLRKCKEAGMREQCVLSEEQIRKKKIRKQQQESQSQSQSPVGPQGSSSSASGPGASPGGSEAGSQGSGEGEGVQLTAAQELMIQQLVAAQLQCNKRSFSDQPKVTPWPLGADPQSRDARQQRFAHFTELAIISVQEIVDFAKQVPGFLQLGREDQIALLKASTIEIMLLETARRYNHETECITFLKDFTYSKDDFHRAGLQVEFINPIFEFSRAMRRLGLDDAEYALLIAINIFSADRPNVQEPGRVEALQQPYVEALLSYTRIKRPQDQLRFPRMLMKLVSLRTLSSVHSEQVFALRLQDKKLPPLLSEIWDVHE

[3] = target: T1, Oxysterols receptor LXR-alpha (Homo sapiens); experiment: Partial antagonist activity at recombinant human GAL4-DBD-fused LXRalpha-LBD expressed in HEK293T cells assessed as inhibition of GW3965-induced receptor activation at 1 uM measured after 12 to 14 hrs by dual-glo luciferase reporter gene assay; format: cell-based; conditions: HEK-293T
[4] = target: T3, Oxysterols receptor LXR-beta (Homo sapiens, UniProt P55055); experiment: Partial agonist activity at recombinant human GAL4-DBD-fused LXRbeta-LBD expressed in HEK293T cells measured after 12 to 14 hrs by dual-glo luciferase reporter gene assay; format: cell-based, HEK-293T
T3 sequence (P55055 whole entry): T2 sequence (whole entry)

[5] = target: T1, Oxysterols receptor LXR-alpha (Homo sapiens); experiment: Partial antagonist activity at recombinant human GAL4-DBD-fused LXRalpha-LBD expressed in HEK293T cells assessed as inhibition of WAY252623-induced receptor activation at 1 uM measured after 12 to 14 hrs by dual-glo luciferase reporter gene assay; format: cell-based; conditions: HEK-293T
[6] = target: T1, Oxysterols receptor LXR-alpha (Homo sapiens); experiment: Agonist activity at recombinant human GAL4-DBD-fused LXRalpha-LBD expressed in HEK293T cells at 1 uM in presence of LXR-agonist 22(R)-hydroxycholesterol measured after 12 to 14 hrs by dual-glo luciferase reporter gene assay; format: cell-based; conditions: HEK-293T
[7] = Cmax in patient with solid tumor at 300 mg/m2, po administered once daily; format: ADME, organism-based; parameters: route oral; conditions: human, in vivo
HEK-293T [8] = experiment: Effect on recombinant firefly luciferase activity expressed in HEK293T cells at 1 uM after 12 to 14 hrs by luminescence assay; format: ADME, cell-based; conditions: human
[9] = target: T4, Oxysterols receptor LXR-alpha (Homo sapiens, UniProt Q13133); experiment: Partial agonist activity at recombinant human GAL4-DBD-fused LXRalpha-LBD expressed in HEK293T cells measured after 12 to 14 hrs by dual-glo luciferase reporter gene assay; format: cell-based, HEK-293T
T4 sequence (Q13133 whole entry): T1 sequence (whole entry)

[10] = target: T1, Oxysterols receptor LXR-alpha (Homo sapiens); experiment: Agonist activity at recombinant human GAL4-DBD-fused LXRalpha-LBD expressed in HEK293T cells at 10 to 20 uM in presence of RXR-antagonist HX531 measured after 12 to 14 hrs by dual-glo luciferase reporter gene assay; format: cell-based; conditions: HEK-293T
[11] = Cmax in chronic hand eczema patient at 30 mg, po administered once daily for 24 weeks; format: ADME, organism-based; parameters: dose 30 mg, route oral; conditions: human, in vivo
[12] = target: T1, Oxysterols receptor LXR-alpha (Homo sapiens); experiment: Partial antagonist activity at recombinant human GAL4-DBD-fused LXRalpha-LBD expressed in HEK293T cells assessed as inhibition of GW3965-induced receptor activation at 10 uM after 12 to 14 hrs by dual-glo luciferase reporter gene assay; format: cell-based; conditions: HEK-293T
[13] = target: T1, Oxysterols receptor LXR-alpha (Homo sapiens); experiment: Agonist activity at recombinant human GAL4-DBD-fused LXRalpha-LBD expressed in HEK293T cells at 10 uM in presence of RXR-antagonist HX531 measured after 12 to 14 hrs by dual-glo luciferase reporter gene assay; format: cell-based; conditions: HEK-293T
Homo sapiens [14] = experiment: Toxicity in chronic hand eczema patient assessed as increase in triglyceride level at 30 mg, po administered once daily for 24 weeks relative to control; format: organism-based; conditions: in vivo, 4032 h
[15] = target: T1, Oxysterols receptor LXR-alpha (Homo sapiens); experiment: Agonist activity at recombinant human GAL4-DBD-fused LXRalpha-LBD expressed in HEK293T cells at 10 uM in presence of LXR-agonist 22(R)-hydroxycholesterol measured after 12 to 14 hrs by dual-glo luciferase reporter gene assay; format: cell-based; conditions: HEK-293T
HEK-293T [16] = experiment: Effect on recombinant firefly luciferase activity expressed in HEK293T cells at 10 uM after 12 to 14 hrs by luminescence assay; format: ADME, cell-based; conditions: human
Homo sapiens [17] = experiment: Toxicity in chronic hand eczema patient assessed as increase in serum cholesterol level at 30 mg, po administered once daily for 24 weeks relative to control; format: organism-based; conditions: in vivo, 4032 h
[18] = target: T1, Oxysterols receptor LXR-alpha (Homo sapiens); experiment: Partial antagonist activity at recombinant human GAL4-DBD-fused LXRalpha-LBD expressed in HEK293T cells assessed as inhibition of WAY252623-induced receptor activation at 10 uM after 12 to 14 hrs by dual-glo luciferase reporter gene assay; format: cell-based; conditions: HEK-293T

Which results are given for `C=C(c1ccc(C(=O)O)cc1)c1cc2c(cc1C)C(C)(C)CCC2(C)C` [BEXAROTENE]?
fold change (FC) [1]: 1.82; fold change (FC) [2]: 2.23; inhibition [3]: Active; EC50 [4]: 434 nM; inhibition [5]: Active; Activity [6]: Active; Cmax [7]: 3390 nM; Activity (HEK-293T [8]): Non-Toxic; EC50 [9]: 196 nM

For `CC(C)CC[C@@H](O)[C@@H](C)[C@H]1CC[C@H]2[C@@H]3CC=C4C[C@@H](O)CC[C@]4(C)[C@H]3CC[C@]12C`, which Activity [10] is on record?
Its Activity is “Active”.

With `CC1=C(/C=C/C(C)=C\C=C\C(C)=C\C(=O)O)C(C)(C)CCC1` [ALITRETINOIN] as the compound, how does the Cmax [11] read?
The Cmax was 810 nM.

What about the inhibition [12] of the same compound?
The inhibition was “Active”.

What about the fold change (FC) [1] of the same compound?
The fold change (FC) was 1.39.

What about the Activity [13] of the same compound?
Its Activity is “Active”.

What about the fold change (FC) [2] of the same compound?
The fold change (FC) was 1.68.

And the Activity (Homo sapiens [14])?
Its Activity is 8%.

And the Activity [15]?
Its Activity is “Active”.

What about the EC50 [4] of the same compound?
The EC50 was 1730 nM.

What about the Activity (HEK-293T [16]) of the same compound?
Its Activity is “Non-Toxic”.

What about the Activity (Homo sapiens [17]) of the same compound?
The Activity was 14%.

What about the inhibition [18] of the same compound?
The inhibition was “Active”.

Which results are given for `Fc1ccc(-c2c3cccc(C(F)(F)F)c3nn2Cc2ccc(F)cc2Cl)cc1` [LXR-623]?
EC50 [4]: 900 nM; EC50 [9]: 1440 nM

Source: ChEMBL document CHEMBL4049385 (Bioorg Med Chem Lett, 2017)
